# Patent US20220096484A1, “METHODS AND COMPOSITIONS FOR TREATING CANCER BY TARGETING FATP2 AND MYELOID DERIVED SUPPRESSOR CELLS” (The Wistar Institute of Anatomy and Biology, priority 2019, published 2022)
# Key:
# [1] = tested on: LLC tumors; assay: Growth of LLC tumors in mice (lipofermata alone, CD8 T cell depletion, combination with antibodies); type: in vivo, mouse
# Procedure: (§1) FIG. 4A-FIG. 4E, Treatments with lipofermata (2 mg kg^−1 twice per day subcutaneously) started 8-10 days after tumor injection. Anti-CTLA4 antibody (200 μg per mouse, intraperitoneally) was administrated at days 7 and 11 after tumor injection, and anti-CSF1R antibody ([…] per mouse, intraperitoneally) was administered every other day, starting the day after tumor injection. FIG. 4A, Growth of indicated tumors in C57BL/6 mice treated with lipofermata. Representative of two independent experiments (n=4-5 mice per group). FIG. 4B, Growth of LLC tumors in NOD-SCID mice treated with lipofermata (n=5). FIG. 4C, Growth of LLC tumors in mice depleted of CD8 T cells and treated with lipofermata (n=5). FIG. 4D, Growth of LLC tumors in mice treated with anti-CTLA4 antibody and lipofermata (n=5). FIG. 4E, Growth of LLC tumors in mice treated with CSF1R inhibitor and lipofermata (n=5). Data are mean±se.m. *P<0.05, **P<0.01, ***P<0.001, ****P<0.0001 (differences from untreated […] and between treated groups), two-way ANOVA with corrections for multiple comparison. NS, not significant.
# 5×10^5 tumor cells were injected s.c. into mice, which formed tumors with a 1.5-cm diameter within 2-3 weeks of injection. Lipofermata was administrated s.c. at dose of 2 mg/kg twice per day. As a control, mice were treated with vehicle alone (DMSO+30% v/v Kolliphor). Treatments with lipofermata started 8-10 days after tumors injections. CSF1R antibody (BioXcell, 300 μg/mouse) was administered every other day starting next day after tumor injection and continued until the mice were sacrificed. PD-1 antibody (clone RMP1-14, BioXcell, 200 μg/mouse) was administered twice a week started 10-12 days after tumor injection. CTLA4-IgG2a (BioXcell, 200 μg/mouse) was administered at day 7 and day 11.
# (§2) Statistical analysis was performed using unpaired two-tailed Student's t-test with significance determined at 0.05. […] Tumor growth was evaluated using two-way Anova test with Bonferroni correction for multiple comparisons.
# [2] = tested on: LLC tumor cells; assay: MTT assay after three-day incubation of tumor cells with lipofermata; type: cell-based; details: range of concentrations corresponding to the dose used in vivo (0.2 mg/ml)
# Procedure: (§3) FIGS. 13A-FIG. 13E show the effect of lipofermata treatment on tumor-bearing mice. FIG. 13A, MTT assay after three-day incubation of tumor cells with indicated concentration of lipofermata. FIG. 13B, Percentage and absolute number of tumor-associated antigen (E7-derived peptide)-specific CD8^+ T cells in draining lymph nodes of mice bearing TC-1 tumor and treated with lipofermata (n=3). FIG. 13C, Growth of TC-1 tumors in mice treated with CTLA4 antibody and lipofermata (n=5). FIG. 13D, CD8^+ T cell infiltration of TC-1 tumors in mice treated with CTLA4 antibody and lipofermata. FIG. 13E, Growth of TC-1 tumors in mice treated with PD1 antibody and lipofermata (n=5). Data are mean±s.d. *P<0.05, **P<0.01, ***P<0.001, ****P<0.0001, two-sided Student's t-test (FIG. 13B) or two-way ANOVA test with correction for repeated measurements (FIG. 13E).
# (§4) Tumor cell lines: EL4 (lymphoma), LLC (Lewis Lung Carcinoma), CT26 (colon carcinoma), TC-1 (HPV16 E6/E7 expressing tumor cell line) were obtained from ATCC and F244 (sarcoma) was kindly provided by Dr. R. Schreiber (Washington University, St. Lois, Mo.). All cells were maintained in DMEM medium supplemented with 10% fetal bovine serum (FBS, Sigma-Aldrich, St. Louis, Mo.) at 37° C., 5% CO2. Tumor cells were injected subcutaneously (s.c.) at 5×10^5 cells per mouse. […]
# [3] = tested on: EL-4 tumor cells; assay: as above; type: cell-based; details: EL-4 cells, range of concentrations corresponding to the dose used in vivo (0.2 mg/ml)
# Procedure: as §3, §4
# [4] = tested on: tumor-associated antigen (E7-derived peptide)-specific CD8+ T cells; assay: Antigen specific CD8 T cells in draining lymph nodes of TC-1 tumor-bearing mice (MHC tetramer flow cytometry); type: in vivo, mouse; details: TC-1 model; lipofermata treatment
# Procedure: as §3, with “Data are mean±s.d. *P<0.05, **P<0.01, ***P<0.001, ****P<0.0001, two-sided Student's t-test (FIG. 13B) or two-way ANOVA test with correction for repeated measurements (FIG. 13E).” left out
# Lymph nodes (LNs) were obtained from TB mice and digested for 30 min at 37° C. with collagenase A (0.5 mg/ml; Sigma Aldrich), Dnase I (0.2 mg/ml, Roche), diluted in HBSS with Ca^2+/Mg^2+ and 20 mM EDTA (Invitrogen) was added 5 min at room temperature to stop the reaction. CD8^+ T cells were isolated from LNs of TB mice using EasySep Mouse CD8+ T Cell Enrichment Kit (STEMCELL) and stimulated with anti CD3 and anti CD28 antibodies (BD Biosciences) for 24 h and IFNγ was analyzed by ELISpot (Mabtech), accordingly to manufacturer's instructions. T cell proliferation was evaluated by flow cytometry using CSFE (BioLegend). […]
# [5] = tested on: tumors in C57BL/6 mice; assay: Growth of tumors in C57BL/6 mice treated with lipofermata (four tumor models); type: in vivo, mouse; details: four tested tumor models, lipofermata 2 mg/kg twice per day s.c., started 8-10 days after tumor injection
# Procedure: as §1, with “significant. […]” for “significant.”
# as §2
# [6] = tested on: LLC tumors in NOD-SCID mice; assay: Growth of LLC tumors in NOD-SCID mice treated with lipofermata; type: in vivo, mouse; details: lipofermata 2 mg/kg twice per day s.c.
# Procedure: as §1
# 5×10^5 tumor cells were injected s.c. into mice, which formed tumors with a 1.5-cm diameter within 2-3 weeks of injection. Lipofermata was administrated s.c. at dose of 2 mg/kg twice per day. As a control, mice were treated with vehicle alone (DMSO+30% v/v Kolliphor). […]
structure (smiles),measurement,setting,value
"O=C1Nc2ccc(Br)cc2C12NN=C(c1ccccc1)S2 (stereo not drawn) [lipofermata, 5′-bromo-5-phenyl-spiro[3H-1,3,4-thiadiazole-2,3′-indoline]-2′-one]",antitumor effect (LLC tumor growth),"[1]; LLC bearing mice, lipofermata 2 mg/kg twice per day s.c., anti-CTLA4 200 μg/mouse days 7 and 11, CSF1R antibody 300 μg/mouse every other day",had an antitumor effect
same,blocking of tumor progression,"[1]; LLC bearing mice, single agents",neither blocked tumor progression
same,tumor growth effect after depletion of CD8+ T cells,"[1]; LLC tumors, immune competent mice depleted of CD8 T cells, lipofermata 2 mg/kg twice per day s.c.",abrogated the effect of lipofermata
same,proliferation of tumor cells in vitro (MTT),[2],did not affect proliferation
same,proliferation of tumor cells in vitro (MTT),[3],did not affect proliferation
same,absolute numbers of antigen specific T cells in draining lymph nodes,[4],increased
same,percentage of antigen specific T cells in draining lymph nodes,[4],increased
same,tumor growth,[5],significant delay of tumor growth
same,tumor growth delay effect in immune deficient mice,[6],this effect was absent
